{
  "source": "patent US11034701B2",
  "about": "“Drug delivery and imaging chemical conjugate, formulations and methods of use thereof” (NanoPhagix LLC, priority 2015, dated 2021)",
  "assay": "Stability in HPLC mobile phases",
  "format": "physicochemical",
  "details": "HPLC mobile phases: MeOH/H2O/0.05% TFA, acetonitrile/H2O",
  "excerpt": "• 1. The HPLC purity may not be true. […] The HPLC purity is greatly dependent upon the HPLC mobile phases. With MeOH/H2O/0.05% of TFA buffer, the HPLC purity is 90%. With MeOH/H2O mobile phase, the HPLC purity is 91.7%. With acetonitrile/H2O mobile phase, the HPLC purity is 99%. […] HPLC condition for the compound of Formula 2",
  "data": [
    {"compound": "CO[C@H]1C[C@@H]2CC[C@@H](C)[C@@](O)(O2)C(=O)C(=O)N2CCCC[C@H]2C(=O)O[C@H]([C@H](C)C[C@@H]2CC[C@@H](OC(=O)CCCCCOC(=O)c3c(I)c(NC(C)=O)c(I)c(NC(C)=O)c3I)[C@H](OC)C2)CC(=O)[C@H](C)/C=C(\\C)[C@@H](O)[C@@H](OC)C(=O)[C@H](C)C[C@H](C)/C=C/C=C/C=C/1C", "note": "[Formula 2]", "values": [
      {"measurement": "stability under HPLC conditions", "value": "not stable under some HPLC conditions"}
    ]},
    {"compound": "CO[C@H]1C[C@@H]2CC[C@@H](C)[C@@](O)(O2)C(=O)C(=O)N2CCCC[C@H]2C(=O)O[C@H]([C@H](C)C[C@@H]2CC[C@@H](O)[C@H](OC)C2)CC(=O)[C@H](C)/C=C(\\C)[C@@H](O)[C@@H](OC)C(=O)[C@H](C)C[C@H](C)/C=C/C=C/C=C/1C", "note": "[rapamycin]", "values": [
      {"measurement": "stability under HPLC conditions", "value": "same stability issues in HPLC mobile phases"}
    ]}
  ]
}
